From PMC5608352, “Formyl peptide derived lipopeptides disclose differences between the receptors in mouse and men and call the pepducin concept in question” (PLoS ONE, 2017)
“Also recorded” adds a separate entry of the source. Values belong to the molecule of their own block, whether it stands above or below them. No end group written: not given here. *: point of attachment. Palmitoyl = CCCCCCCCCCCCCCCC(=O)*

Experiments:
Fpr1 = experiment: Inhibition of fMIFL-induced superoxide release, Fpr2^-/- mouse neutrophils; type: cell-based; conditions: Boc2 2 μM, 5 min pre-incubation; fMIFL 10 nM
Excerpt: (§1) C57BL/6 wild-type mice were purchased from Charles River Laboratories and Fpr2^−/− mice generated as described previously, were generously provided by Dr Ji Ming Wang, Frederick National Laboratory for Cancer Research, USA. Mice were kept under standard temperature and light conditions and fed laboratory chow and water ad libitum, at the Department of Rheumatology and Inflammation Research, University of Gothenburg. Sex matched WT and Fpr2^-/- animals (age 8–10 weeks) were used to isolated bone marrow derived neutrophils. The studies performed were approved by the Ethical Committee for Animal Experimentation, Göteborg, Sweden.
(§2) Mice (8–12 weeks of age) were killed by cervical dislocation, the femurs and tibias were removed and freed of soft tissue attachments, and the extreme distal tip of each extremity was cut off. […] The cell number and population of bone marrow cells were determined by flow cytometry based on forward scatter (size) and side scatter (density) localization.
(§3) NADPH-oxidase activity was determined using an isoluminol and HRP-enhanced chemiluminescence (CL) system that allow for the determination of superoxide production. The CL activity was measured in a six-channel Biolumat LB 9505 apparatus (Berthold Co., Wildbad, Germany), using disposable 4-mL polypropylene tubes with 1 mL reaction mixture. […]

Fpr2 [1] = target: T1, Fpr2 (Mus musculus, UniProt O88536); experiment: Inhibition of F2Pal16-induced superoxide release, WT mouse neutrophils; type: cell-based; conditions: Boc2 2 μM or peptidomimetic inhibitor 1 μM (five experiments), or mF2Pal16 500 nM against F2Pal16 500 nM (three experiments); 5 min pre-incubation
T1 construct: WT mouse neutrophils (5 x 10^4 cells) were pre-incubated without (solid line) or with mF2Pal16; endogenous in cells; host or cells: bone marrow neutrophils of C57BL/6 wild-type mice, TNF-alpha primed
T1 sequence (O88536 1-351): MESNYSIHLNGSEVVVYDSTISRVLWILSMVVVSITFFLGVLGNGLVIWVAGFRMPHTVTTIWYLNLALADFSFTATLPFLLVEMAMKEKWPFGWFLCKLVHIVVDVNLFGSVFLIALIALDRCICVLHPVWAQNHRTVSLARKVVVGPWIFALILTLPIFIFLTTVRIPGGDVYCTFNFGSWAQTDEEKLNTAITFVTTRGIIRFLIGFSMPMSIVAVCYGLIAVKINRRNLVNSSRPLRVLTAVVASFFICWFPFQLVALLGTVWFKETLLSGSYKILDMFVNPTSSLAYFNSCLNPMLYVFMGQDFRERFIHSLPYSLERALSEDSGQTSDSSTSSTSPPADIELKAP
Excerpt: Mice (8–12 weeks of age) were killed by cervical dislocation, the femurs and tibias were removed and freed of soft tissue attachments, and the extreme distal tip of each extremity was cut off. KRG without Ca^2+ and Mg^2+ (KRG-) was forced through the bone by using a 1-mL syringe with a 27-gauge needle. After dispersing cell clumps and removing the debris, the bone marrow granulocytes were isolated according to an earlier described procedure with some modifications. Briefly, a cell suspension in 2 mL of KRG- was laid on top of a three-layer Percoll gradient (1.095, 1.085, and 1.070 g/mL). The density of each Percoll solution was verified using density marker beads. After centrifugation at 500 × g for 30 min at 4°C in a swinging bucket rotor, the lowest band (1.085/1.095 g/mL interface) was collected as the neutrophil fraction. After washing with KRG-, remaining red blood cells were eliminated by hypotonic lysis. After a final wash with KRG-, the cells were resuspended in KRG. The cell number and population of bone marrow cells were determined by flow cytometry based on forward scatter (size) and side scatter (density) localization.
(§4) NADPH-oxidase activity was determined using an isoluminol and HRP-enhanced chemiluminescence (CL) system that allow for the determination of superoxide production. The CL activity was measured in a six-channel Biolumat LB 9505 apparatus (Berthold Co., Wildbad, Germany), using disposable 4-mL polypropylene tubes with 1 mL reaction mixture. […] The light emission was recorded continuously over time and presented as superoxide production (in arbitrary light units, cpm x10^-6) as a function of time (min). The activity before stimulus addition was recorded as basal line and this activity was not changed in vehicle control samples. […]
Data analysis was performed using Graph Pad Prism 7.0. The EC50/IC50 values were determined from experiments in which the activities were normalized to the response induced by maximal response or induced by agonist in the absence of inhibitor. […]

Fpr2^-/- neutrophils = experiment: Inhibition of F2Pal16-induced superoxide release, Fpr2^-/- mouse neutrophils; type: cell-based; conditions: Boc2 2 μM, 5 min pre-incubation; F2Pal16 500 nM
Excerpt: as §1, §2, §3

Fpr2 [2] = target: T1, Fpr2; design: method as in PMID 27614010; conditions: ref [12]; cited from earlier work
Excerpt: When looking at the FPRs in different species it is clear that the receptor family has a complex evolutionary history, as illustrated by the fact that the number of genes in the family vary markedly in mouse and man. […] As different mouse models constitute important tools for translational studies aiming to understa ... || Genetically modified mouse strains and mouse disease models provide excellent tools to study the function of neutrophil FPRs in vivo. Such studies have indicated Fprs (in particular Fpr2) as important regulators of the physiological processes leading to resolution of inflammation. However, a direct translation of mouse data to human studies is hampered due to the distant phylogenetic relationship between mouse and human receptors. In addition to the different number of Fpr genes in mice and humans and an incomplete understanding of the evolutionary relationship between human FPRs ...

FPR2 [3] = experiment: Inhibition of F2Pal16 (FPR2 activating pepducin)-induced superoxide release, human neutrophils; type: cell-based; conditions: PBP10 1 μM or CysH 1 μM, 5 min pre-incubation; F2Pal16 1 μM; five experiments
Excerpt: Human peripheral blood neutrophils were isolated from buffy coats from healthy blood donors using dextran sedimentation and Ficoll-Paque gradient centrifugation as described. The remaining erythrocytes were disrupted by hypotonic lysis and the neutrophils were washed twice, suspended in KRG and, stored on melting ice until use. This isolation process permits cells to be purified with minimal granule mobilization. The buffy coats were obtained from the blood bank at Sahlgrenska University Hospital. Ethics approval was not needed since the buffy coats were provided anonymously and could not be traced back to a specific individual. This is in line with Swedish legislation section code 4§ 3p SFS 2003:460 (Lag om etikprövning av forskning som avser människor).
as §4

[4] = target: formyl peptide receptor Fpr2, mouse (mouse (endogenous in bone marrow neutrophils)) (UniProt O88536)
[5] = target: formyl peptide receptor Fpr2, mouse (mouse (endogenous in bone marrow neutrophils)) (UniProt O88536); remark: listed apart in the source

- effect of inhibitor on F2Pal16 response, WT mouse neutrophils (Fpr2 [1]): no effect on the pepducin response
Molecule: Boc-FLFLF [Boc2, Fpr1 antagonist]
- effect of inhibitor on fMIFL response, Fpr2^-/- neutrophils (Fpr1): completely abolished
- effect of inhibitor on F2Pal16 response, Fpr2^-/- neutrophils (Fpr2^-/- neutrophils): insensitive to Boc2; also recorded: no effect on the pepducin response

Molecule: Cyclosporin H
- activity at mouse Fprs (earlier work) (Fpr2 [2]): lack effects on their mouse counterparts
- effect of inhibitor on F2Pal16 response, human neutrophils (FPR2 [3]): not by the FPR1 inhibitor cyclosporine H

- EC50 of superoxide release by wild-type mouse neutrophils, dose-response of F1Pal16 [4]: 300 nM
Molecule: Palmitoyl-KIHKQGLIKSSRPLRV [F1Pal16 pepducin (Pal-…)]

- EC50 of superoxide release by wild-type mouse neutrophils, dose-response of F2Pal16 (maximum at 1 uM) [5]: 300 nM
Molecule: Palmitoyl-KIHKKGMIKSSRPLRV [F2Pal16 pepducin (Pal-…)]
